Values quoted from earlier work, collected in patent US20200129524A1, “PERSONALIZED CONTRACEPTIVE FORMULATIONS” (Agile Therapeutics, Inc., priority 2017, published 2020).

Molecular target: T1, SHBG (Homo sapiens, UniProt P04278)
T1 sequence (P04278 30-402): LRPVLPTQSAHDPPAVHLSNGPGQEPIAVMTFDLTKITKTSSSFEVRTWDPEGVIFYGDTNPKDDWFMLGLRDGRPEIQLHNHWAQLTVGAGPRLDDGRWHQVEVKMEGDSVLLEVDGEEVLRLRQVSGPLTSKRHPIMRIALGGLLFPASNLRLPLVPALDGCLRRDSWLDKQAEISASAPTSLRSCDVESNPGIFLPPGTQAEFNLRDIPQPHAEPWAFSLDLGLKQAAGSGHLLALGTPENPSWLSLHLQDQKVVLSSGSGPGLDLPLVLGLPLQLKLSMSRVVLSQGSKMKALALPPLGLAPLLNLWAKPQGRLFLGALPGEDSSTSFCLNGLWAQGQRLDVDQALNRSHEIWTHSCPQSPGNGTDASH
Conditions: testosterone being 100; cited from earlier work

SMILES: C[C@]12CC[C@H]3[C@@H](CCC4=CC(=O)CC[C@@]43C)[C@@H]1CC[C@@H]2O [testosterone]
- relative binding affinity to SHBG: 100%
